Here are results for one substance from patent US20200397673A1, “AN ANTIMICROBIAL COMPOSITION” (Conopco, Inc., d/b/a UNILEVER, priority 2017, published 2020).

In the experiment the test system is M. furfur ATCC 14521. The experiment is described as follows: Antifungal activity (log reduction) on M. furfur. The format is cell-based. As to conditions: contact time 24 hr, 10 mg sample in 1000 μL inoculum, 10^5 cells/ml, 32° C. How it is done:
The above samples were subjected to their anti fungal efficacy on M. furfur as described hereinafter.
M. furfur ATCC 14521 strain was revived from glycerol stock on Modified Dixon agar. Plate was at 30° C. for 72 hrs. Approximately 72 hrs prior to testing, the plate culture was inoculated onto the surface of another sterile Modified Dixon agar plate and incubated at 30° C. for approximately 72 hrs. From second subculture, the optical density of culture is adjusted at 620 nm to give cell strength of 10^7 cfu/ml. The culture was further diluted for 100 times to achieve 10^5 cfu/ml in Pityrosporum broth.
1000 μL of M. furfur inocula were added to the above tubes and a blank sterile 1.5 ml Eppendorf tube (no particles as control), respectively so that the load in each tube is 10^5 cells/ml.
All the samples were kept shaken @120 RPM in a shaker incubator at 32° C. After 24 hours incubation, 10 μL of the samples were withdrawn from the respective 1.5 ml Eppendorf tubes and diluted with 990 μL of Pityrosporum broth. This represents 10^−2 dilution. Serial dilution was performed from the above 24 hours inocula and plated 100 μL of dilution onto modified Dixon plate. Plate dilution 10^−2, 10^−3, 10^−4 and 10^−5. All the plates were kept for incubation at 32° C. for 24-72 hrs. Plate count for all the plates were done.

zinc pyrithione [Example B]: the Log reduction stood at 1.58.
